Measured values published in PubChem BioAssay AID2060610 (Molecular Pharmacology Branch, DTP, NCI, 2025).

System: 616215-338-R-J1-PDC complex spheroids, viability % test/control
Experiment: Anticancer human tumor 616215-338-R-J1-PDC patient-derived colon adenocarcinoma cell line growth inhibition [CLK]
Details: for IC50: curve of first compound; for viability, T/C: stronger effect = lower value
How it was run: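 Multi-cell-type spheroids combined patient-derived tumor cells with HUVEC endothelial cells and human mesenchymal stem cells. Paired agents were dosed in half-log steps down from about clinical Cmax, or from 10 microM where Cmax was unknown.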
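Also: spheroids exposed to agents for 7 days.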
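For viability, T/C in this document: 100% = DMSO vehicle wells.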

For `C=CC(=O)Nc1cc(Nc2nccc(-c3cn(C)c4ccccc34)n2)c(OC)cc1N(C)CCN(C)C` + CN1CCN(c2cc(C(=O)Nc3cc4cc(-c5cnn(C)c5)ccc4cn3)ccn2)CC1, the IC50 (second compound 0.0316 µM) was greater than 300000 pM, the IC50 (second compound 0.1 µM) was greater than 300000 pM and the IC50 (second compound 0.316 µM) was less than 949 pM. The IC50 (second compound 1 µM) was less than 949 pM, the IC50 (second compound 3.16 µM) was less than 949 pM and the IC50 (second compound 10 µM) was less than 949 pM. For the same molecule, the viability, T/C (second compound 0.0316 µM, first compound 0.000949 µM) was 104%, the viability, T/C (second compound 0.0316 µM, first compound 0.003 µM) was 102% and the viability, T/C (second compound 0.0316 µM, first compound 0.00949 µM) was 93.5%. It also gave a viability, T/C (second compound 0.0316 µM, first compound 0.03 µM) of 103%, a viability, T/C (second compound 0.0316 µM, first compound 0.0949 µM) of 107% and a viability, T/C (second compound 0.0316 µM, first compound 0.3 µM) of 107%. It also gave a viability, T/C (second compound 0.1 µM, first compound 0.000949 µM) of 125%, a viability, T/C (second compound 0.1 µM, first compound 0.003 µM) of 114% and a viability, T/C (second compound 0.1 µM, first compound 0.00949 µM) of 110%. For the same molecule, the viability, T/C (second compound 0.1 µM, first compound 0.03 µM) was 111%, the viability, T/C (second compound 0.1 µM, first compound 0.0949 µM) was 97.3% and the viability, T/C (second compound 0.1 µM, first compound 0.3 µM) was 79.2%. It also gave a viability, T/C (second compound 0.316 µM, first compound 0.000949 µM) of 30.5%, a viability, T/C (second compound 0.316 µM, first compound 0.003 µM) of 35.5% and a viability, T/C (second compound 0.316 µM, first compound 0.00949 µM) of 37%. It also gave a viability, T/C (second compound 0.316 µM, first compound 0.03 µM) of 25.2%, a viability, T/C (second compound 0.316 µM, first compound 0.0949 µM) of 24.5% and a viability, T/C (second compound 0.316 µM, first compound 0.3 µM) of 20.4%. For the same molecule, the viability, T/C (second compound 1 µM, first compound 0.000949 µM) was 0.17%, the viability, T/C (second compound 1 µM, first compound 0.003 µM) was 0.18% and the viability, T/C (second compound 1 µM, first compound 0.00949 µM) was 1.87%. It also gave a viability, T/C (second compound 1 µM, first compound 0.03 µM) of 0.19%, a viability, T/C (second compound 1 µM, first compound 0.0949 µM) of 0.34% and a viability, T/C (second compound 1 µM, first compound 0.3 µM) of 1.79%. The viability, T/C (second compound 3.16 µM, first compound 0.000949 µM) was 0.2%, the viability, T/C (second compound 3.16 µM, first compound 0.003 µM) was 0.16% and the viability, T/C (second compound 3.16 µM, first compound 0.00949 µM) was 0.17%. For the same molecule, the viability, T/C (second compound 3.16 µM, first compound 0.03 µM) was 0.17%, the viability, T/C (second compound 3.16 µM, first compound 0.0949 µM) was 1.76% and the viability, T/C (second compound 3.16 µM, first compound 0.3 µM) was 1.73%. The viability, T/C (second compound 10 µM, first compound 0.000949 µM) was 0.28%, the viability, T/C (second compound 10 µM, first compound 0.003 µM) was 0.23% and the viability, T/C (second compound 10 µM, first compound 0.00949 µM) was 0.25%. For the same molecule, the viability, T/C (second compound 10 µM, first compound 0.03 µM) was 0.24%, the viability, T/C (second compound 10 µM, first compound 0.0949 µM) was 0.22% and the viability, T/C (second compound 10 µM, first compound 0.3 µM) was 0.24%.
`Cn1ncnc1[C@H]1c2n[nH]c(=O)c3cc(F)cc(c23)N[C@@H]1c1ccc(F)cc1` + CNC(=O)c1ccc(Nc2nc(OC3CCCC3)c3c(-c4ccc5nc(C)oc5c4)c[nH]c3n2)c(OC)c1 showed an IC50 (second compound 0.0316 µM) greater than 100000 pM, an IC50 (second compound 0.1 µM) of less than 316 pM and an IC50 (second compound 0.316 µM) of less than 316 pM. The IC50 (second compound 1 µM) was less than 316 pM, the IC50 (second compound 3.16 µM) was less than 316 pM and the IC50 (second compound 10 µM) was less than 316 pM. The viability, T/C (second compound 0.0316 µM, first compound 0.000316 µM) was 97.2%, the viability, T/C (second compound 0.0316 µM, first compound 0.001 µM) was 93.8% and the viability, T/C (second compound 0.0316 µM, first compound 0.00316 µM) was 102%. The viability, T/C (second compound 0.0316 µM, first compound 0.01 µM) was 102%, the viability, T/C (second compound 0.0316 µM, first compound 0.0316 µM) was 101% and the viability, T/C (second compound 0.0316 µM, first compound 0.1 µM) was 108%. It also gave a viability, T/C (second compound 0.1 µM, first compound 0.000316 µM) of 46.1%, a viability, T/C (second compound 0.1 µM, first compound 0.001 µM) of 46.5% and a viability, T/C (second compound 0.1 µM, first compound 0.00316 µM) of 47.9%. It also gave a viability, T/C (second compound 0.1 µM, first compound 0.01 µM) of 54.5%, a viability, T/C (second compound 0.1 µM, first compound 0.0316 µM) of 59.8% and a viability, T/C (second compound 0.1 µM, first compound 0.1 µM) of 49.6%. For the same molecule, the viability, T/C (second compound 0.316 µM, first compound 0.000316 µM) was 46.7%, the viability, T/C (second compound 0.316 µM, first compound 0.001 µM) was 45.3% and the viability, T/C (second compound 0.316 µM, first compound 0.00316 µM) was 40.5%. The viability, T/C (second compound 0.316 µM, first compound 0.01 µM) was 45.1%, the viability, T/C (second compound 0.316 µM, first compound 0.0316 µM) was 37.7% and the viability, T/C (second compound 0.316 µM, first compound 0.1 µM) was 51.3%. It also gave a viability, T/C (second compound 1 µM, first compound 0.000316 µM) of 39.2%, a viability, T/C (second compound 1 µM, first compound 0.001 µM) of 44.8% and a viability, T/C (second compound 1 µM, first compound 0.00316 µM) of 41.9%. It also gave a viability, T/C (second compound 1 µM, first compound 0.01 µM) of 48.1%, a viability, T/C (second compound 1 µM, first compound 0.0316 µM) of 44.3% and a viability, T/C (second compound 1 µM, first compound 0.1 µM) of 56.3%. It also gave a viability, T/C (second compound 3.16 µM, first compound 0.000316 µM) of 42.2%, a viability, T/C (second compound 3.16 µM, first compound 0.001 µM) of 45.1% and a viability, T/C (second compound 3.16 µM, first compound 0.00316 µM) of 45.5%. It also gave a viability, T/C (second compound 3.16 µM, first compound 0.01 µM) of 42.9%, a viability, T/C (second compound 3.16 µM, first compound 0.0316 µM) of 52% and a viability, T/C (second compound 3.16 µM, first compound 0.1 µM) of 50.9%. The viability, T/C (second compound 10 µM, first compound 0.000316 µM) was 38.8%, the viability, T/C (second compound 10 µM, first compound 0.001 µM) was 43.6% and the viability, T/C (second compound 10 µM, first compound 0.00316 µM) was 50.2%. For the same molecule, the viability, T/C (second compound 10 µM, first compound 0.01 µM) was 50.1%, the viability, T/C (second compound 10 µM, first compound 0.0316 µM) was 54.9% and the viability, T/C (second compound 10 µM, first compound 0.1 µM) was 47.2%.
